Test results taken from ChEMBL document CHEMBL5338822, “The Role of Allylic Strain for Conformational Control in Medicinal Chemistry” (J Med Chem, 2023).

Experiments:
[1] = target: T1, Sphingosine 1-phosphate receptor 1 (Homo sapiens, UniProt P21453); experiment: Inhibition of human S1P1 expressed in human HeLa cells incubated for 20 mins by FLIPR assay; type: cell-based
[2] = target: T1, Sphingosine 1-phosphate receptor 1; experiment: Antagonist activity at human S1P1 transfected in CHO cells incubated for 120 mins by [gamma-35S]GTP binding assay; type: functional, cell-based

T1 sequence (P21453 whole entry): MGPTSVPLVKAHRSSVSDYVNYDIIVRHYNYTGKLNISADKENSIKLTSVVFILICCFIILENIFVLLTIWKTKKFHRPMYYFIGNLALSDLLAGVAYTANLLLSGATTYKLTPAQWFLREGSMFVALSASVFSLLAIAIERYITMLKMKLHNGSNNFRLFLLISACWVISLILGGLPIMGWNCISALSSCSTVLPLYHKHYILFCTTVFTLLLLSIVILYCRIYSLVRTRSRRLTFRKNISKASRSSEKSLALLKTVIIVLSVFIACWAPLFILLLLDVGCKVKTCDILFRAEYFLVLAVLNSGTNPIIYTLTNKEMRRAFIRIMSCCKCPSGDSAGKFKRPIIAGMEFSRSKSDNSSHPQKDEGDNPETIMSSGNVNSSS

In the case of `Cc1cc(-c2cccc(NCc3ccc(Cl)c(Cl)c3)c2)ccc1C(=O)N[C@@H](C)C(=O)O`, the IC50 [1] is reported as 170 nM and the IC50 [2] is reported as 4270 nM.
